Experiments:
BRD4 long = biological target: T1, BRD4 long (Homo sapiens, UniProt O60885); test: BRD4 (long) degradation assay, Western blotting; assay type: cell-based; conditions: HEK293T cells
T1 construct: endogenous in cells; host or cells: HEK293T
Summary of the method: (§1)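 Cell lines were grown at 37° C with 5% CO2 (HEK293T and C33A in DMEM, A549 in F-12K, 22RV1, LNCaP and Mino in RPMI-1640, K562 and MV-4-11 in IMDM, all with 10% FBS). Lysates were BCA-normalized, then SDS/PAGE Western blots were probed with target-specific antibodies and read by IR680/IR800 fluorescent secondaries on Li-Cor.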

Recombinant RNF126 = biological target: T2, Recombinant RNF126 (Homo sapiens, UniProt Q9BV68); test: RNF126 Binding Assay, gel-based ABPP
T2 construct: FLAG (C); host or cells: HEK293T
T2 sequence (Q9BV68 whole entry): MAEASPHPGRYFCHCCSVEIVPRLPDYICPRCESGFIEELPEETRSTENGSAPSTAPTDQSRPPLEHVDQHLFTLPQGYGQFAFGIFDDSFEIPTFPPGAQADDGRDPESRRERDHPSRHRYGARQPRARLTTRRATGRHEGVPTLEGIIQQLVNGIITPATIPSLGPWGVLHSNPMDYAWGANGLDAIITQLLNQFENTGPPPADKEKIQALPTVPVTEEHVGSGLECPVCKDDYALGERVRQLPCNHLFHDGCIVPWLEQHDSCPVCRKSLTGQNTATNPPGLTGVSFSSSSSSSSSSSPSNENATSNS
Summary of the method: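 FLAG-tagged human RNF126, expressed in HEK293T and purified on anti-FLAG resin, was pretreated with DMSO or covalent ligand for 30 min at 37 °C in PBS. IA-rhodamine was then added for 1 h at RT in the dark. Probe labelling was read by SDS-PAGE in-gel fluorescence.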

BRD4 short = biological target: T3, BRD4 short (Homo sapiens, UniProt O60885); test: BRD4 (short) degradation assay, Western blotting; assay type: cell-based; conditions: HEK293T cells
T3 construct: endogenous in cells; host or cells: HEK293T
Summary of the method: as §1

HEK293T cells = test: Quantitative TMT proteomic profiling in HEK293T cells; assay type: cell-based
Protocol: Cells were treated with either DMSO vehicle or compound (Compound 130, 1 μM) for 24 h and lysate was prepared as described above. Briefly, 25-100 μg protein from each sample was reduced, alkylated and tryptically digested overnight. Individual samples were then labeled with isobaric tags using commercially available TMTsixplex (Thermo Fisher Scientific, P/N 90061) kits, in accordance with the manufacturer's protocols. Tagged samples (20 μg per sample) were combined, dried with SpeedVac, resuspended with 300 μL 0.1% TFA in H2O, and fractionated using high pH reversed-phase peptide fractionation kits (Thermo Scientific, P/N 84868) according to manufacturer's protocol. Fractions were dried with SpeedVac, resuspended with 50 μL 0.1% FA in H2O, and analyzed by LC-MS/MS as described below.
Quantitative TMT-based proteomic analysis was performed as previously described using a Thermo Eclipse with FAIMS LC-MS/MS (King, E. A. et al. Chemoproteomics-Enabled Discovery of a Covalent Molecular Glue Degrader Targeting NF-κB. 2022.05.18.492542 Preprint at https://doi.org/10.1101/2022.05.18.492542 (2022)). […] Only peptide-to-spectrum matches that are unique assignments to a given identified protein within the total dataset are considered for protein quantitation. […]

BTK = biological target: T4, BTK (Homo sapiens, UniProt Q06187); test: BTK degradation in MINO lymphoma cancer cells, Western blotting; assay type: cell-based
T4 construct: endogenous in cells; host or cells: Mino
T4 sequence (Q06187 whole entry): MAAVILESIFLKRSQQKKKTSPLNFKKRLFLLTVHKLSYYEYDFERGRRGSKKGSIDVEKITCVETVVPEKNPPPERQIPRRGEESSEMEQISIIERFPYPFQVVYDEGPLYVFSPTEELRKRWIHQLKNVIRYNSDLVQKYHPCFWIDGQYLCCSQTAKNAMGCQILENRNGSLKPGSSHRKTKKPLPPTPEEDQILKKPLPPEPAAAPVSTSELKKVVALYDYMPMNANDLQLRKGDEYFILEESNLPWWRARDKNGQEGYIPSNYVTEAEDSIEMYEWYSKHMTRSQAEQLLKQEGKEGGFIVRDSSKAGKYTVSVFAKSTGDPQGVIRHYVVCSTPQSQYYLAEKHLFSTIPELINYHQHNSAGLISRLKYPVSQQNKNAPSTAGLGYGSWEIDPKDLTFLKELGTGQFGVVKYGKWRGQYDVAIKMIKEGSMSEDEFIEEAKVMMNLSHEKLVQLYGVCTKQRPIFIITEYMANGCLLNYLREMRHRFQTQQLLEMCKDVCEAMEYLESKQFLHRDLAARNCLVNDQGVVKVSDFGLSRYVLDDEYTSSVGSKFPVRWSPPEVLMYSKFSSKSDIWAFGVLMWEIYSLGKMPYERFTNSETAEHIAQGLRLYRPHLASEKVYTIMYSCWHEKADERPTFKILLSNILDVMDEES
Protocol: C33A cells were purchased from American Type Culture Collection (ATCC) and were cultured in Dulbecco's Modified Eagle Medium (DMEM) containing 10% (v/v) fetal bovine serum (FBS) and maintained at 37° C. with 5% CO2. 22RV1 cells were purchased from the ATCC and were cultured in RPMI-1640 Medium containing 10% (v/v) FBS and maintained at 37° C. with 5% CO2. HEK293T cells were obtained from the UC Berkeley Cell Culture Facility and were cultured in DMEM containing 10% (v/v) FBS and maintained at 37° C. with 5% CO2. K562 cells were obtained from the UC Berkeley Cell Culture Facility and were cultured in Iscove's Modified Dulbecco's Medium (IMDM) containing 10% (v/v) FBS and maintained at 37° C. with 5% CO2. MV-4-11 cells were obtained from the ATCC and were cultured in IMDM containing 10% (v/v) FBS and maintained at 37° C. with 5% CO2. A549 cells were obtained from the ATCC and were cultured in F-12K Medium containing 10% (v/v) FBS and maintained at 37° C. with 5% CO2. Mino cells were obtained from the ATCC and were cultured in RPMI-1640 Medium containing 10% (v/v) FBS and maintained at 37° C. with 5% CO2. […]
Cells were washed twice with cold PBS, scraped, and pelleted by centrifugation (700 g, 5 min, 4° C.). […] Proteome concentrations were determined using BCA assay and lysate was diluted to appropriate working concentrations. […]

Compound	degradation of BRD4 long isoform, in words (BRD4 long)	binding to RNF126 (gel-based ABPP), in words (Recombinant RNF126)	degradation of BRD4 short isoform, in words (BRD4 short)	selectivity of degradation by quantitative proteomic profiling (HEK293T cells)	degradation of BTK, in words (BTK)
COc1ccc(C(=O)/C=C/C(=O)N2CCN(C(=O)C[C@@H]3N=C(c4ccc(Cl)cc4)c4c(sc(C)c4C)-n4c(C)nnc43)CC2)cc1 [Compound 130, (S,E)-1-(4-(2-(4-(4-chlorophenyl)-2,3,9-trimethyl-6H-thieno[3,2-f][1,2,4]triazolo[4,3-a][1,4]diazepin-6-yl)acetyl)piperazin-1-yl)-4-(4-methoxyphenyl)but-2-ene-1,4-dione]	degradation of both the long and short isoforms of BRD4 in HEK293T cells in a dose-responsive, time-dependent, and proteasome-dependent manner	potent binding	degradation of both the long and short isoforms of BRD4 in HEK293T cells in a dose-responsive, time-dependent, and proteasome-dependent manner	relatively selective degradation of BRD4	–
COc1ccc(C(=O)/C=C/C(=O)N2CCC[C@@H](n3nc(-c4ccc(Oc5ccccc5)cc4)c4c(N)ncnc43)C2)cc1 [Compound 131]	–	potent binding	–	–	degradation of BTK in MINO lymphoma cancer cells

Reference: patent publication US20260200939A1, “MOLECULAR GLUE DEGRADER COMPOUNDS AND USES THEREOF” (Novartis AG, priority 2022, published 2026)
